# Reference: PubChem BioAssay (NCI)
#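 Results reflect a 48-hour exposure of cells in 96-well plates to compound at five concentrations. Definition used: TGI = concentration required for complete inhibition of growth.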
# Tests used:
# Experiment in all cases: NCI tumour cell line growth inhibition, 48 h
# 786-0 renal = test system: 786-0 renal
# A498 renal = test system: A498 renal
# A549 NSCLC = test system: A549 NSCLC
# ACHN renal = test system: ACHN renal
# BT-549 breast = test system: BT-549 breast
# CAKI-1 renal = test system: CAKI-1 renal
# CCRF-CEM leukemia = test system: CCRF-CEM leukemia
# COLO 205 colon = test system: COLO 205 colon
# DLD-1 colon = test system: DLD-1 colon
# DMS 114 small cell lung = test system: DMS 114 small cell lung
# DMS 273 small cell lung = test system: DMS 273 small cell lung
# DU-145 prostate = test system: DU-145 prostate
# EKVX NSCLC = test system: EKVX NSCLC
# HCC-2998 colon = test system: HCC-2998 colon
# HCT-116 colon = test system: HCT-116 colon
# HCT-15 colon = test system: HCT-15 colon
# HL-60(TB) leukemia = test system: HL-60(TB) leukemia
# HOP-18 NSCLC = test system: HOP-18 NSCLC
# HOP-62 NSCLC = test system: HOP-62 NSCLC
# HOP-92 NSCLC = test system: HOP-92 NSCLC
# HT29 colon = test system: HT29 colon
# IGROV1 ovarian = test system: IGROV1 ovarian
# K-562 leukemia = test system: K-562 leukemia
# KM12 colon = test system: KM12 colon
# KM20L2 colon = test system: KM20L2 colon
# LOX IMVI melanoma = test system: LOX IMVI melanoma
# LXFL 529 NSCLC = test system: LXFL 529 NSCLC
# M14 melanoma = test system: M14 melanoma
# M19-MEL melanoma = test system: M19-MEL melanoma
# MALME-3M melanoma = test system: MALME-3M melanoma
# MCF7 breast = test system: MCF7 breast
# MDA-MB-231 breast = test system: MDA-MB-231 breast
# MDA-MB-435 = test system: MDA-MB-435
# MOLT-4 leukemia = test system: MOLT-4 leukemia
# NCI-H226 lung = test system: NCI-H226 lung
# NCI-H23 lung = test system: NCI-H23 lung
# NCI-H460 lung = test system: NCI-H460 lung
# OVCAR-3 ovarian = test system: OVCAR-3 ovarian
# OVCAR-4 ovarian = test system: OVCAR-4 ovarian
# OVCAR-5 ovarian = test system: OVCAR-5 ovarian
# OVCAR-8 ovarian = test system: OVCAR-8 ovarian
# PC-3 prostate = test system: PC-3 prostate
# RPMI-8226 leukemia = test system: RPMI-8226 leukemia
# RXF 393 renal = test system: RXF 393 renal
# RXF-631 renal = test system: RXF-631 renal
# SF-268 CNS = test system: SF-268 CNS
# SF-295 CNS = test system: SF-295 CNS
# SF-539 CNS = test system: SF-539 CNS
# SK-MEL-2 melanoma = test system: SK-MEL-2 melanoma
# SK-MEL-28 melanoma = test system: SK-MEL-28 melanoma
# SK-MEL-5 melanoma = test system: SK-MEL-5 melanoma
# SK-OV-3 ovarian = test system: SK-OV-3 ovarian
# SN12C renal = test system: SN12C renal
# SNB-19 CNS = test system: SNB-19 CNS
# SNB-75 CNS = test system: SNB-75 CNS
# SNB-78 CNS = test system: SNB-78 CNS
# SR leukemia = test system: SR leukemia
# SW-620 colon = test system: SW-620 colon
# T-47D breast = test system: T-47D breast
# TK-10 renal = test system: TK-10 renal
# U251 CNS = test system: U251 CNS
# UACC-257 melanoma = test system: UACC-257 melanoma
# UACC-62 melanoma = test system: UACC-62 melanoma
# UO-31 renal = test system: UO-31 renal
# XF 498 CNS = test system: XF 498 CNS
# NCI-H522 lung = test system: NCI-H522 lung
# NCI/ADR-RES ovarian = test system: NCI/ADR-RES ovarian
# P388 leukemia = test system: P388 leukemia
# P388/ADR leukemia = test system: P388/ADR leukemia
# SN12K1 renal = test system: SN12K1 renal
smiles,measurement,setting,value
COc1c(C=O)c2c(c(OC)c1OC)-c1ccc(OC)c(=O)cc1[C@@H](NC(C)=O)CC2,TGI,786-0 renal,> 75.6 µM
same,TGI,A498 renal,14.8 µM
same,TGI,A549 NSCLC,> 100 µM
same,TGI,ACHN renal,> 100 µM
same,TGI,BT-549 breast,> 100 µM
same,TGI,CAKI-1 renal,> 30.9 µM
same,TGI,CCRF-CEM leukemia,> 100 µM
same,TGI,COLO 205 colon,0.574 µM
same,TGI,DLD-1 colon,> 100 µM
same,TGI,DMS 114 small cell lung,0.0364 µM
same,TGI,DMS 273 small cell lung,> 100 µM
same,TGI,DU-145 prostate,> 100 µM
same,TGI,EKVX NSCLC,> 100 µM
same,TGI,HCC-2998 colon,34.4 µM
same,TGI,HCT-116 colon,1.05 µM
same,TGI,HCT-15 colon,> 100 µM
same,TGI,HL-60(TB) leukemia,0.0717 µM
same,TGI,HOP-18 NSCLC,> 100 µM
same,TGI,HOP-62 NSCLC,> 100 µM
same,TGI,HOP-92 NSCLC,7.18 µM
same,TGI,HT29 colon,> 8.89 µM
same,TGI,IGROV1 ovarian,76.6 µM
same,TGI,K-562 leukemia,> 100 µM
same,TGI,KM12 colon,0.632 µM
same,TGI,KM20L2 colon,0.218 µM
same,TGI,LOX IMVI melanoma,49.8 µM
same,TGI,LXFL 529 NSCLC,> 100 µM
same,TGI,M14 melanoma,> 25.2 µM
same,TGI,M19-MEL melanoma,> 100 µM
same,TGI,MALME-3M melanoma,> 100 µM
same,TGI,MCF7 breast,28.4 µM
same,TGI,MDA-MB-231 breast,> 100 µM
same,TGI,MDA-MB-435,24.6 µM
same,TGI,MOLT-4 leukemia,> 17.8 µM
same,TGI,NCI-H226 lung,4.17 µM
same,TGI,NCI-H23 lung,3.47 µM
same,TGI,NCI-H460 lung,18.7 µM
same,TGI,OVCAR-3 ovarian,1.09 µM
same,TGI,OVCAR-4 ovarian,> 100 µM
same,TGI,OVCAR-5 ovarian,> 100 µM
same,TGI,OVCAR-8 ovarian,> 14.4 µM
same,TGI,PC-3 prostate,> 100 µM
same,TGI,RPMI-8226 leukemia,47.2 µM
same,TGI,RXF 393 renal,> 56.3 µM
same,TGI,RXF-631 renal,18.2 µM
same,TGI,SF-268 CNS,30.3 µM
same,TGI,SF-295 CNS,0.449 µM
same,TGI,SF-539 CNS,0.0644 µM
same,TGI,SK-MEL-2 melanoma,2.57 µM
same,TGI,SK-MEL-28 melanoma,> 100 µM
same,TGI,SK-MEL-5 melanoma,0.272 µM
same,TGI,SK-OV-3 ovarian,23.1 µM
same,TGI,SN12C renal,> 100 µM
same,TGI,SNB-19 CNS,> 92.8 µM
same,TGI,SNB-75 CNS,> 100 µM
same,TGI,SNB-78 CNS,> 67.6 µM
same,TGI,SR leukemia,> 100 µM
same,TGI,SW-620 colon,> 100 µM
same,TGI,T-47D breast,> 100 µM
same,TGI,TK-10 renal,> 100 µM
same,TGI,U251 CNS,> 25.5 µM
same,TGI,UACC-257 melanoma,> 88.8 µM
same,TGI,UACC-62 melanoma,> 92.3 µM
same,TGI,UO-31 renal,> 100 µM
same,TGI,XF 498 CNS,37 µM
CC1(C)CC23C4COC(=O)C2CCC1C3CC4=O (stereo not given),TGI,A498 renal,13.8 µM
same,TGI,A549 NSCLC,70.3 µM
same,TGI,CAKI-1 renal,43 µM
same,TGI,CCRF-CEM leukemia,43.4 µM
same,TGI,COLO 205 colon,33.6 µM
same,TGI,DLD-1 colon,42.6 µM
same,TGI,DMS 273 small cell lung,71 µM
same,TGI,EKVX NSCLC,83.8 µM
same,TGI,HCC-2998 colon,37.2 µM
same,TGI,HCT-116 colon,21.9 µM
same,TGI,HCT-15 colon,21.9 µM
same,TGI,HL-60(TB) leukemia,12.6 µM
same,TGI,HOP-18 NSCLC,5.11 µM
same,TGI,HOP-62 NSCLC,59.3 µM
same,TGI,HOP-92 NSCLC,29.3 µM
same,TGI,HT29 colon,95.2 µM
same,TGI,IGROV1 ovarian,69 µM
same,TGI,K-562 leukemia,123 µM
same,TGI,KM12 colon,27.2 µM
same,TGI,KM20L2 colon,54.6 µM
same,TGI,LOX IMVI melanoma,22.6 µM
same,TGI,M19-MEL melanoma,40.7 µM
same,TGI,MALME-3M melanoma,23.3 µM
same,TGI,MCF7 breast,47.9 µM
same,TGI,MOLT-4 leukemia,63.2 µM
same,TGI,NCI-H226 lung,20.6 µM
same,TGI,NCI-H23 lung,10.8 µM
same,TGI,NCI-H460 lung,29.8 µM
same,TGI,NCI-H522 lung,11.2 µM
same,TGI,NCI/ADR-RES ovarian,24.8 µM
same,TGI,OVCAR-3 ovarian,27.7 µM
same,TGI,OVCAR-4 ovarian,64.2 µM
same,TGI,OVCAR-5 ovarian,72.4 µM
same,TGI,OVCAR-8 ovarian,46.6 µM
same,TGI,P388 leukemia,111 µM
same,TGI,P388/ADR leukemia,84.5 µM
same,TGI,RPMI-8226 leukemia,48.6 µM
same,TGI,RXF 393 renal,4.76 µM
same,TGI,SF-268 CNS,50.9 µM
same,TGI,SF-295 CNS,53.5 µM
same,TGI,SF-539 CNS,45.1 µM
same,TGI,SK-MEL-2 melanoma,40.6 µM
same,TGI,SK-MEL-28 melanoma,18.9 µM
same,TGI,SK-MEL-5 melanoma,32.7 µM
same,TGI,SK-OV-3 ovarian,104 µM
same,TGI,SN12C renal,42.5 µM
same,TGI,SN12K1 renal,48.2 µM
same,TGI,SNB-19 CNS,81.2 µM
same,TGI,SNB-75 CNS,57.6 µM
same,TGI,SNB-78 CNS,73.4 µM
same,TGI,SW-620 colon,10.2 µM
same,TGI,U251 CNS,50.7 µM
same,TGI,UACC-257 melanoma,26.3 µM
same,TGI,UACC-62 melanoma,28.7 µM
same,TGI,UO-31 renal,90.1 µM
same,TGI,XF 498 CNS,27.2 µM
Cc1cn(Cc2ccccc2CCO)c(=S)[nH]c1=O,TGI,786-0 renal,> 100 µM
same,TGI,A498 renal,> 100 µM
same,TGI,A549 NSCLC,> 100 µM
same,TGI,ACHN renal,> 100 µM
same,TGI,CAKI-1 renal,> 100 µM
same,TGI,CCRF-CEM leukemia,> 100 µM
same,TGI,COLO 205 colon,> 100 µM
same,TGI,DMS 114 small cell lung,> 100 µM
same,TGI,DMS 273 small cell lung,> 100 µM
same,TGI,EKVX NSCLC,> 100 µM
same,TGI,HCT-15 colon,> 100 µM
same,TGI,HL-60(TB) leukemia,> 100 µM
same,TGI,HOP-18 NSCLC,> 100 µM
same,TGI,HOP-62 NSCLC,> 100 µM
same,TGI,HOP-92 NSCLC,> 100 µM
same,TGI,HT29 colon,> 100 µM
same,TGI,IGROV1 ovarian,> 100 µM
same,TGI,K-562 leukemia,> 100 µM
same,TGI,KM12 colon,> 100 µM
same,TGI,KM20L2 colon,> 100 µM
same,TGI,LOX IMVI melanoma,> 100 µM
same,TGI,LXFL 529 NSCLC,> 100 µM
same,TGI,M14 melanoma,> 100 µM
same,TGI,M19-MEL melanoma,> 100 µM
same,TGI,MALME-3M melanoma,> 100 µM
same,TGI,MOLT-4 leukemia,> 100 µM
same,TGI,NCI-H226 lung,> 100 µM
same,TGI,NCI-H23 lung,> 100 µM
same,TGI,NCI-H460 lung,> 100 µM
same,TGI,NCI-H522 lung,> 100 µM
same,TGI,OVCAR-3 ovarian,> 100 µM
same,TGI,OVCAR-4 ovarian,> 100 µM
same,TGI,OVCAR-5 ovarian,> 100 µM
same,TGI,OVCAR-8 ovarian,> 100 µM
same,TGI,RPMI-8226 leukemia,> 100 µM
same,TGI,RXF 393 renal,> 100 µM
same,TGI,RXF-631 renal,> 100 µM
same,TGI,SF-268 CNS,> 100 µM
same,TGI,SF-295 CNS,> 100 µM
same,TGI,SF-539 CNS,> 100 µM
same,TGI,SK-MEL-2 melanoma,> 100 µM
same,TGI,SK-MEL-28 melanoma,> 100 µM
same,TGI,SK-MEL-5 melanoma,> 100 µM
same,TGI,SK-OV-3 ovarian,> 100 µM
same,TGI,SN12C renal,> 100 µM
same,TGI,SNB-19 CNS,> 100 µM
same,TGI,SNB-75 CNS,> 100 µM
same,TGI,SW-620 colon,> 100 µM
same,TGI,TK-10 renal,> 100 µM
same,TGI,U251 CNS,> 100 µM
same,TGI,UACC-257 melanoma,> 100 µM
same,TGI,UACC-62 melanoma,> 100 µM
same,TGI,UO-31 renal,> 100 µM
same,TGI,XF 498 CNS,> 100 µM
